Here are results for 6 molecules from patent US6423706B1, “Antimicrobial locks comprising taurinamide derivatives and carboxylic acids and/or salts thereof” (Biolink Corporation, priority 1998, dated 2002).

Read-outs that look alike come from different tables or passages of the source.

The subject of one data set is S. epidermis. The note with it: cited from earlier work.
In a further data set the test system is Candida albicans. The note with it: oral isolate, human buccal epithelial cells; concentration dependent; cited from earlier work.
In data set [1] the test system is E. coli. The note with it: urine isolate, human uroepithelial cells; concentration dependent; cited from earlier work.
In data set [2] the test system is E. coli. The note with it: 0.2 mL of 20% solution in 5% polyvinyl pyrrolidone intravenous; E. coli intraperitoneal; cited from earlier work.
The subject of data set [3] is Staphylococcus Aureus (VISA, MRSA). To be noted: pH 7.0 to pH 5.0; cited from earlier work.
Data set [4] in a line: Long term stability of taurolidine in solution. In kind it is physicochemical. To be noted: citric acid and sodium citrate buffer, compared with PVP solutions. From the text: In addition, citric acid is a known antioxidant. The buffer system created by adjustment of pH using sodium hydroxide also resists changes in the pH due to the oxidation of formaldehyde to formic acid.

The next data set relates to B. fragilis. To be noted: 0.2 mL of 20% solution in 5% polyvinyl pyrrolidone intravenous; B. fragilis intraperitoneal; cited from earlier work.
The conditions of data set [5]: mouse, in vivo; cited from earlier work.
The subject of the next data set is whole blood. Nature of the data set: Clotting of whole pig blood mixed with taurolidine solution with or without ACD-A. To be noted: pig blood filled to 30 mL, inspected after 30 minutes. As to the method:
A 0.5% solution of taurolidine in Ringer-lactate solution (Thomae, Biberach, Germany) was introduced into each of four polyethylene bottles having a 30 mL volume. Filling volumes were 5, 10, and 15 mL. One bottle was filled with 5 mL of the taurolidine solution and 2 mL ACD-A (Fresenius, Bad Homburg, Germany) solution. ACD-A solution is used for the conservation of whole blood and contains per liter: 22.0 grams of sodium citrate dihydrate, 7.3 grams of citric acid and 34.5 grams of glucose monohydrate.
Blood was collected at the slaughter house from a female pig directly from the slaughter wound into the containers that were then filled up to the 30 mL level. The containers were capped and gently moved to mix blood with the solution. The containers were inspected after 30 minutes. Blood in the containers containing only taurolidine was clotted, but the blood in the container containing the mixture of taurolidine and ACD-A was not clotted.

The conditions of data set [6]: mice; cited from earlier work.
The conditions of data set [7]: clinical and bacteriologic outcomes, endotoxemia, organ failure, 28-day mortality; cited from earlier work.

Regarding `CN[C@H](CC(C)C)C(=O)N[C@H]1C(=O)N[C@@H](CC(N)=O)C(=O)N[C@H]2C(=O)N[C@H]3C(=O)N[C@H](C(=O)N[C@H](C(=O)O)c4cc(O)cc(O)c4-c4cc3ccc4O)[C@H](O)c3ccc(c(Cl)c3)Oc3cc2cc(c3O[C@@H]2O[C@H](CO)[C@@H](O)[C@H](O)[C@H]2O[C@H]2C[C@](C)(N)[C@H](O)[C@H](C)O2)Oc2ccc(cc2Cl)[C@H]1O` [Vancomycin], in the data set with S. epidermis (initial inocula 10^3 CFU/mL), the Bactericidal concentration was 6.7 µg/mL.

Consider `[H]/N=C(\N/C(=N/[H])NCCCCCCNC(=N)NC(=N)Nc1ccc(Cl)cc1)Nc1ccc(Cl)cc1` [chlorhexidine], for which the Anti-adherence activity result in the data set with Candida albicans and with E. coli [1] was “significant” in each case.

On to `O=C(O)CN(CCN(CC(=O)O)CC(=O)O)CC(=O)O` [disodium EDTA, ethylenediaminetetraacetic acid], for which the Bactericidal concentration with S. epidermis (initial inoculum 10^3 CFU per mL, in 24 hours) is 20000 µg/mL.

`O=S1(=O)CCN(CN2CCS(=O)(=O)NC2)CN1` [taurolidine, bis-(1,1-dioxo-perhydroxy-1,2,4-thiadiazin-4-yl)methane]: the Anti-adherence activity result in the data set with Candida albicans and in the data set on E. coli [1] was “significant” in each case. Further, the Mortality rate entry in the data set with E. coli [2] and with B. fragilis was “very significantly reduce the mortality rate” each time. In addition, in [3], the “Dependence of activity on pH” value is given as “increases with decreasing pH”. Further, in [4], the “Stability of taurolidine in solution” value is reported as “increases the stability”. Besides, the “Taurolidine solubility believed reachable” value (additional citric acid, without polyol or PVP) was found to be 5%. Further, the “Taurolidine in solution achieved” value (approximately 2.6% by weight citric acid, no PVP or polyol, pH 5.2 to 5.3) stood at 4.0 weight percent. Besides, the Teratogenicity entry in data set [5] is reported as “non-teratogenic”. In addition, the “Blood clotting on inspection” value with whole blood is “clotted”. Further, in data set [6], the “Intraperitoneal LD50” value is ~1500 mg/kg. The “Therapeutic effect on outcome” value in data set [7] is reported as “no beneficial therapeutic effect”.

With heparin, the Inhibition of growth result with S. epidermis (isolate from catheter of infected patient) is “does not inhibit the growth”.

povidone-iodine: the Anti-adherence activity entry in the data set with Candida albicans and in the data set with E. coli [1] was “significant” in each case.
